Test results reported in US20230330111A1, “ACTIVE AGENT COMBINATION FOR TREATMENT OF CANCER” (HELMHOLTZ ZENTRUM MÜNCHEN - DEUTSCHES FORSCHUNGSZENTRUM FÜR …, priority 2020, published 2023).
“Also recorded” adds a separate entry of the source.

Key:
HCT116 cells [1] = assay: High-throughput phenotypic screen with NEN co-treatment (FDA-approved and GPCR libraries); type: cell-based; settings: NEN 1.2 μM, 24 h, FDA-approved drug library and GPCR library
Procedure: Plate and liquid handling was performed using a HTS platform system composed of a Sciclone G3 Liquid Handler from PerkinElmer (Waltham, MA, USA) with a Mitsubishi robotic arm (Mitsubishi Electric, RV-3511), a MultiFloTM Dispenser (Biotek Instruments, Bad Friedrichshall, Germany) as well as a CytomatTM Incubator (Thermo Fisher Scientific, Waltham, MA, USA). Cell seeding and assays were performed in black 384-well plates (Greiner bio one 384-well μCLEAR®, BLACK, 781091). The plates were coated with poly-D-lysine (Sigma-Aldrich, St. Louis, MA, USA) for 1 h at room temperature to facilitate a better cell adherence. Cells were seeded in 384-well microplates with a cell number of 12,000 cells/well. The signals of the MultiTox-Fluor assays were detected on the EnVision® Multilabel Reader (PerkinElmer, Waltham, MA, USA). The Prestwick Chemical library contains 1,280 small molecule compounds, which are 100% approved drugs (Food and Drug Administration (FDA), European Medicines Agency (EMA) and other agencies). The purity of the compounds was >90% as reported by the provider of the compounds. The GPCR compound library was purchased from MedChem Express (Cat. No.: HY-[…]). The Z' factor was calculated as described by Zhang and colleagues (Zhang, Chung et al., 1999). For screening of the FDA and GPCR small molecule libraries, HCT116 cells were washed with PBS, trypsinized, and resuspended in cell culture medium. The cell suspension (12,000 cells in 50 μl per well) was dispensed into poly-D-lysine pre-coated 384-well plates (Greiner bio one 384-well pCLEAR®, BLACK, 781091) and incubated at 37° C. with 5% CO2. 24 h after seeding, either 5 μl of NEN (negative control), NEN+Nutlin-3a (positive control), or DMSO alone (solvent control) dissolved in cell culture media were dispensed to the assay plate (NEN, final concentration: 1.2 μM; Nutlin-3a, final concentration: 25 μM). In addition, the same day cells were treated either with compound (1 mM stock solution) dissolved in 100% DMSO or DMSO alone. 0.5 μl of compounds/DMSO were transferred to 55 μl cell culture medium per well to keep the final DMSO volume concentration below 1.0%. The cells were then incubated (37° C.; 5% CO2) for 24 h prior to adding 50 μl MultiTox-Fluor Multiplex Cytotoxicity Assay reagent (Promega). Live-cell fluorescence (excitation=400 nm; emission=505 nm) and dead-cell fluorescence (excitation=485 nm; emission=520 nm) were recorded with an EnVision multilabel reader (PerkinElmer, Waltham, USA). The ratio for live/dead was calculated and normalized to the negative/vehicle control. For hit selection a threshold of lower than 3 standard deviations from the median of the negative/vehicle population was set.

ATF4, CHOP and Gadd34 = assay: qPCR of ISR genes; type: cell-based; settings: HCT116; for ISR marker gene expression (ATF4, CHOP, Gadd34 mRNA): NEN 1.2 μM, Domp and TCAs 30 μM, Clomi 20 μM
Excerpt: RNA was isolated using the Qiagen […] kit following the manufacturers protocol and reverse transcribed using the Quantitect reverse transcription kit (Qiagen). cDNA was amplified using the PowerUp SYBRGreen mastermix (LifeTechnologies), the following primers and an Applied Biosystems Quantstudio 6 cycler. RNA expression data were normalized to the level of beta-actin expression.

[2] = compared with its analogue Trimipramine; cited from earlier work
[3] = test system: glioblastoma and small-cell lung cancer (SCLC); settings: cited from earlier work
HCT116 cells [4] = assay: Cell death / ratio of toxicity and viability in HCT116 (monolayer and spheroids); type: cell-based; settings: for attenuation of cell death induced by NEN drug combinations: HCT116 monolayer or spheroids, ISRIB 1 μM or Cyclodextrin in medium; for cell death / toxicity (ratio of toxicity and viability): HCT116, 2D or 3D spheroids, NEN 1.2 μM, FCCP 2.5 μM, 2-DG 100 mM, Domp, Imi, Desi, Ami 30 μM, Clomi 20 μM
Procedure: (§1) HCT116, BxPC3 and U87 cell lines were maintained in Dulbecco's modified Eagle's medium (DMEM) (Gibco) supplemented with 10% fetal bovine serum (FBS; Millipore) and Penicilin/Streptomycine (Life Tehnologies), and cultured at 37° C., 5% CO2 and 95 humidity. For spheroid formation, 10000 cells were plated in ultra-low attachment plates (Fisher Scientific), centrifuged at 850 G for 10 min and incubated for 3 days until treatment, with medium change every 3 days.
(§2) To determine drug induced toxicity in spheroid cultures, the Promega CellToXGreen and RealTime-Glo™ MT Cell Viability kits were used according to the manufacturers protocols. Briefly, Toxicity and viability dyes were mixed with cell culture medium and added prior to drug treatment. Fluorescence and luminescence were measured over the course of 3 days on a Thermo Fisher Varioskan Lux plate reader.
(§3) For Caspase 3/7 activity and general cytotoxicity in 2D cell culture the Apo One Homogenous Caspase-3/7 Assay and Multitox Fluor assays were employed respectively, according to the manufacturers protocol. Cells were seeded in 96-wells one day prior to treatment and incubated 24-48 h before assaying.

U87 cells = assay: Cell death / ratio of toxicity and viability in U87 (spheroids); type: cell-based; settings: for attenuation of cell death induced by NEN drug combinations: U87 spheroids, ISRIB 1 μM or Cyclodextrin 0.75%; for cell death / toxicity (ratio of toxicity and viability): U87, NEN 1.2 μM, FCCP 2.5 μM, 2-DG 100 mM, Domp, Imi, Desi, Ami 30 μM, Clomi 20 μM
Procedure: as §1, §2, §3

[5] = test system: preclinical tumor rodent models; settings: single drug; background art; cited from earlier work
BxPC3 cells = assay: Cell death / ratio of toxicity and viability in BxPC3 (monolayer); type: cell-based; settings: for cell death / toxicity (ratio of toxicity and viability): BxPC3, NEN 1.2 μM, FCCP 2.5 μM, 2-DG 100 mM, Domp, Imi, Desi, Ami 30 μM, Clomi 20 μM
Procedure: as §1, §2, §3

UPP1 = UPP1 expression (immunoblot, qPCR) in HCT116; type: cell-based; settings: ISRIB 1 μM with NEN 1.2 μM + Domperidone 30 μM
Procedure: Cells were lysed at 4° C. in 100 μl of RIPA buffer (Sigma-Aldrich) containing protease (Roche 11697498001) and phosphatase (Roche 04906837001) inhibitors, and sonicated. Cell extracts were centrifuged 14000×RPM for 5 min 4° C. and the supernatant collected to protein concentration determination with BCA protein assay (Pierce 23225). 10-20 μg of total protein were subjected to SDS-PAGE electrophoresis, and after transfer, membranes were blocked (1 h) and incubated overnight at 4° C. with primary antibodies. After secondary antibody incubation for 1 h at room temperature, signals were visualized by Chemidoc Image System (BioRad) and ImageLab software.
RNA was isolated using the Qiagen RNAesay kit following the manufacturers protocol and reverse transcribed using the Quantitect reverse transcription kit (Qiagen). cDNA was amplified using the PowerUp SYBRGreen mastermix (LifeTechnologies), the following primers and an Applied Biosystems Quantstudio 6 cycler. RNA expression data were normalized to the level of beta-actin expression.

B42 organoids = assay: Paclitaxel sensitization in B42 organoids; type: cell-based, human; settings: triple combination with NEN and TCAs vs Paclitaxel alone
Procedure: (§4) Primary patient-derived PDAC (Pancreatic ductal adenocarcinoma) three-dimensional (3D) organoids were generated from primary resected human PDAC surgical specimen according to the “Tuveson protocol” described in (Tiriac et al., 2018) and in the methods and extended methods sections of a publication by the group of Hans Clevers (Driehuis et al., 2019). Generation and culturing of primary-dispersed human PDAC cells was performed as recently described (Biederstadt et al., 2020). Written informed consent from the patients for research purposes was obtained prior to the investigation.
as §2
(§5) To investigate the efficacy of targeting the described metabolic stress response in a more heterogeneous cancer cell population, which better reflect the tumor biology, cultures of primary tumor-derived organoids from two patients with pancreatic cancer have been used. Organoids were seeded at a density of 1000 cells per well and let grow for 7 days prior to treatment.

PDO-48 organoids = assay: Paclitaxel sensitization in PDO-48 organoids; type: cell-based, human; settings: triple combination with NEN and TCAs vs Paclitaxel alone
Procedure: as §4, §2, §5

HCT116 cells [6] = assay: Caspase 3/7 activity in HCT116; type: cell-based; settings: HCT116, 1% serum, NEN 1.2 μM, 18 h
Excerpt: For Caspase 3/7 activity and general cytotoxicity in 2D cell culture the Apo One Homogenous Caspase-3/7 Assay and Multitox Fluor assays were employed respectively, according to the manufacturers protocol. […]

Compound: O=c1[nH]c2ccccc2n1CCCN1CCC(n2c(=O)[nH]c3cc(Cl)ccc32)CC1 [Domperidone]
- hit in screen (cell death in NEN co-treated but not vehicle treated cells) (HCT116 cells [1]): scored as hit in both screens; also recorded: one of the top hits in both screens
- ISR marker gene expression (ATF4, CHOP, Gadd34 mRNA) (ATF4, CHOP and Gadd34): modest increase in ISR marker gene expression

Compound: CN(C)CCCN1c2ccccc2CCc2ccccc21 [Imipramine]
- water solubility [2]: higher water solubility
- efficacy in preclinical mouse models [3]: proven efficacy against glioblastoma and small-cell lung cancer (SCLC) in preclinical mouse models

Compound: Cyclodextrin [CD]
- attenuation of cell death induced by NEN drug combinations (HCT116 cells [4]): CD concentration-dependent suppression of cell death
- attenuation of cell death induced by NEN drug combinations (U87 cells): partially prevented cell death induction

Compound: O=C(Nc1ccc([N+](=O)[O-])cc1Cl)c1cc(Cl)ccc1O [niclosamide]
- anti-tumor efficacy [5]: anti-tumor efficacy in a variety of preclinical tumor rodent models; also recorded: only minor therapeutic efficacy

Compound: O=C(COc1ccc(Cl)cc1)NC1CCC(NC(=O)COc2ccc(Cl)cc2)CC1 (centres unmarked) [ISRIB]
- attenuation of cell death induced by NEN drug combinations (HCT116 cells [4]): attenuated cell death induction
- attenuation of cell death induced by NEN drug combinations (BxPC3 cells; BxPC3 monolayer, 48 h): attenuated cell death induction
- effect on drug-induced UPP1 upregulation (UPP1): prevented the drug-induced UPP1 upregulation
- attenuation of cell death induced by NEN drug combinations (U87 cells): attenuated cell death induction
- effect on drug-induced CHOP, Gadd34 and ATF4 expression (ATF4, CHOP and Gadd34; ISRIB 1 μM with NEN 1.2 μM + Domperidone 30 μM): prevented the induction of CHOP and of its target gene Gadd34, but did not decrease ATF4 expression significantly

Compound: CN(C)CCCN1c2ccccc2CCc2ccc(Cl)cc21 [Clomipramine]
- hit in screen (cell death in NEN co-treated but not vehicle treated cells) (HCT116 cells [1]): represented with several compounds in both screens

Compound: N#CC(C#N)=NNc1ccc(OC(F)(F)F)cc1 [FCCP, Carbonyl cyanide-p-trifluoromethoxyphenylhydrazone]
- cell death / toxicity (ratio of toxicity and viability) (HCT116 cells [4]): did not cause significant toxicity
- cell death / toxicity (ratio of toxicity and viability) (BxPC3 cells): did not cause significant toxicity
- cell death / toxicity (ratio of toxicity and viability) (U87 cells): did not cause significant toxicity

Compound: O=CC[C@@H](O)[C@H](O)[C@H](O)CO [2-DG, 2-deoxyglucose]
- cell death / toxicity (ratio of toxicity and viability) (HCT116 cells [4]): but not 2-DG alone caused significant cell death
- cell death / toxicity (ratio of toxicity and viability) (BxPC3 cells): but not 2-DG alone caused significant cell death
- cell death / toxicity (ratio of toxicity and viability) (U87 cells): but not 2-DG alone caused significant cell death

Compound: CC(=O)O[C@H]1C(=O)[C@@]2(C)[C@H]([C@H](OC(=O)c3ccccc3)[C@]3(O)C[C@H](OC(=O)[C@H](O)[C@@H](NC(=O)c4ccccc4)c4ccccc4)C(C)=C1C3(C)C)[C@]1(OC(C)=O)CO[C@@H]1C[C@@H]2O [Paclitaxel]
- increase in effectiveness in inducing organoid cell death (B42 organoids): up to 100 times
- increase in effectiveness in inducing organoid cell death (PDO-48 organoids): approximately ten

Compound: CC(CN(C)C)CN1c2ccccc2CCc2ccccc21 (centres unmarked) [Trimipramine]
- hit in screen (cell death in NEN co-treated but not vehicle treated cells) (HCT116 cells [1]): represented with several compounds in both screens

Compound: NCCO.O=C(Nc1ccc([N+](=O)[O-])cc1Cl)c1cc(Cl)ccc1O [NEN, niclosamide ethanolamine]
- cell death / toxicity (ratio of toxicity and viability) (HCT116 cells [4]): did not cause significant toxicity
- cell death / toxicity (ratio of toxicity and viability) (BxPC3 cells): did not cause significant toxicity
- cell death / toxicity (ratio of toxicity and viability) (U87 cells): did not cause significant toxicity
- ISR marker gene expression (ATF4, CHOP, Gadd34 mRNA) (ATF4, CHOP and Gadd34): modest increase in ISR marker gene expression
- cell death (caspase activity) under low serum (HCT116 cells [6]): caused significant cell death
- anti-tumor efficacy [5]: anti-tumor efficacy in a variety of preclinical tumor rodent models

Compound: CNCCCN1c2ccccc2CCc2ccccc21 [Desipramine]
- hit in screen (cell death in NEN co-treated but not vehicle treated cells) (HCT116 cells [1]): represented with several compounds in both screens
